Results reported in patent publication US20070184082A1, “Biocompatible polymeric delivery systems for sustained release of quinazolinones” (priority 2004, published 2007).

What was measured:
clinical = settings: human, in vivo, po, 2 mg
Protocol: The present interim pharmacokinetic analysis was carried out by ASTER. Patients included were treated for solid tumour. On study Day 1 each patient received one oral dose of halofuginone, either 1 mg (one patient) or 2 mg (6 patients), and blood samples for pharmacokinetics were collected up to 72 hours (3 days) after dosing. Immediately after the collection of the 72 hour blood sample, patients started the multiple dose regimen consisting in morning daily dose administration of 1 mg (for subject No.1) or 2 mg (6 remaining patients) until study Day 15. Urine samples were collected over 48 hours after first dosing. Urine concentrations were only available for patients No.1, No.2, No.3 and No.4, and thus only 4 patients were included in the analysis of urine excretion data.

healthy male volunteers = experiment: Phase I clinical study of safety of oral halofuginone, three dosing regimens; format: in vivo, human
Protocol: The Phase I clinical study described below was conducted in the PPD Development Clinical Pharmacology Unit, 72 Hospital Close, Evington, Leicester, United Kingdom, between September 2001 and October 2001. The objective of this study was to compare the safety and tolerability of halofuginone when a daily dose of 2 mg is administered using three different dosing regimens.
A single-center, open label, three-period, phase I study was performed. Eight subjects attended the PPD Development Clinic for pre-study screening […]. Visits at the Clinic were as follows:
Subjects were admitted to the Clinic on the evening of Day-1. After an overnight fast, subjects received an oral dose of 0.25 mg halofuginone with a standard snack. Each subject received a total of eight doses at 3-hour intervals starting at approximately 10:00 h on Day 1, and remained resident in the Clinic until the morning of Day 3 [after the 24 hour pharmacokinetic (PK) sample]. They returned to the Clinic for an out-patient visit on the morning of Day 4 to provide a PK blood sample. There was a washout of at least 6 days after the last dose in Period 1 before the start of dosing in Period 2.
Subjects were admitted to the Clinic at approximately 07:00 h on Day 1. Subjects were provided with breakfast and then fasted until the first dose. Subjects received an oral dose of 0.5 mg halofuginone with a standard meal at 6-hour intervals starting at approximately 13:00 h (a total of four doses) and remained resident in the Clinic until the morning of Day 3 (after the 24 hour PK sample). They returned to the Clinic for an out-patient visit on the morning of Day 4 to provide a PK blood sample. There was a washout of at least 6 days after the last dose in Period 2 before the start of dosing in Period 3.
Subjects were admitted to the Clinic on the evening of Day-1. After an overnight fast, subjects received a single oral dose of 2 mg halofuginone with breakfast at approximately 07:00 h on Day 1 and remained resident in the Clinic until the morning of Day 2 (after the 24 hour PK sample). They returned to the clinic for an out-patient visit on the morning of Day 3 to provide a PK blood sample.
Adverse events (AEs) were monitored throughout the study period. Vital signs (including blood pressure, pulse rate and oral body temperature), electrocardiogram (ECG), physical examinations and routine laboratory safety analyses were conducted at the pre-study screening and at the post-study follow-up visits.
Eight healthy male Caucasian subjects were enrolled into the study. The mean age was 31.1 years (range 19-39 years), mean height was 176.6 cm (range 169-184 cm), mean weight was 78.9 kg (range 62.7-91.7 kg) and mean BMI was 25.2 kg/m^2 (range 21.9-27.9 kg/m^2). All subjects completed the study.

humans = experiment: Maximum tolerated oral dose of halofuginone in humans; settings: oral administration

In the case of `O=C(CC1NCCCC1O)Cn1cnc2cc(Br)c(Cl)cc2c1=O` (centres unmarked) [halofuginone, 7-bromo-6-chloro-3-[3-(3-hydroxy-2-piperidinyl)-2-oxopropyl]-4(3H)-quinazolinone], the half-life (clinical) was 37.2 h, the tolerability conclusion (healthy male volunteers; 2 mg given as eight doses of 0.25 mg with a snack or 4 doses of 0.5 mg with a meal) was “safe and well tolerated” and the “treatment-emergent AEs considered moderate in severity” value (healthy male volunteers; human, in vivo) was “two”. For the same compound, the “headache AEs” value (healthy male volunteers; male, human, in vivo) was 3 AEs, the “nausea AEs” value (healthy male volunteers; male, human, in vivo) was 13 AEs and the “time to resolution of all vomiting AEs and most nausea AEs” value (healthy male volunteers; male, human, in vivo) was 1 h and 0.717 h. The “total AEs reported” value (healthy male volunteers; male, human, in vivo) was 29, the “treatment-emergent AEs” value (healthy male volunteers; male, human, in vivo) was 28 and the “treatment-emergent AEs considered mild” value (healthy male volunteers; male, human, in vivo) was 26. The tolerability conclusion (healthy male volunteers; single dose of 2 mg with a meal) was “less well tolerated” and the “maximum tolerated dose with no adverse effects observed” value (humans) was 1 mg/day.
